# From patent US20110151034A1, “ANTIBACTERIAL AGENT AND DISINFECTING METHOD” (Mitsubishi Chemical Corporation, priority 2008, published 2011)
# Tests used:
# [1] = tested on: Listeria monocytogenes ATCC49594; experiment: Antibacterial test in BHI culture medium: turbidity, inhibitory ratio and bacteria growth (Experimental Example 2); format: cell-based; details: for Number of bacteria (cfu/ml): culture 30° C. 24 hours, then BHI agar 37° C. 24 hours; for Inhibitory ratio (%): from turbidity vs dimethylsulfoxide standard; for Inhibitory ratio (%) / Turbidity of culture fluid: 30° C. for 24 hours; for Turbidity of culture fluid: 660 nm
# Method: The above obtained isolated components were diluted with dimethylsulfoxide (manufactured by KANTO CHEMICAL CO., INC.) to prepare three test liquids at fraction concentrations (wt %) of 2%, 1% and 0.5%. As positive controls, erythromycin (manufactured by Wako Pure Chemical Industries Ltd.) was dissolved in ethanol (Junsei Chemical Co., Ltd.) to have a concentration of 1,000 ppm, 500 ppm or 250 ppm. As a negative control, sterilized water was used.
# The antibacterial test was carried out by using Listeria monocytogenes ATCC49594 as follows.
# (1) 8.9 ml of a brain heart infusion (BHI) culture medium (manufactured by NISSUI PHARMACEUTICAL CO., LTD.) was put in a test tube and treated in an autoclave (manufactured by TOMY SEIKO CO., LTD., TOMY BS-325). The culture medium concentration was adjusted to achieve a specified concentration when 0.1 ml of the above test liquid was added.
# Listeria monocytogenes ATCC 49594 was cultured in the BHI culture medium by shake culture at 37° C. for 1 hour and diluted to an appropriate bacteria concentration (2.0×10^3 cfu/ml) by the BHI culture medium.
# To the test tube in which 8.9 ml of the BHI culture medium prepared in the above (1) was put, 0.1 ml of the prepared test liquid and 1 ml of the bacteria liquid prepared in the above (2) were added, stirred and left at rest at 30° C. for 24 hours.
# The turbidity of the culture fluid in the test tube left at rest at 30° C. for 24 hours was measured by a turbidimeter (manufactured by TAITEC CORPORATION, miniphoto 518R) at a wavelength of 660 nm. The inhibitory ratio was calculated from the following formula, where A is the turbidly in the case of a culture fluid to which 0.1 ml of dimethylsulfoxide was added instead of the test liquid.
# Inhibitory ratio (%)=[(A−[turbidity of culture fluid])/A]×100
# The culture fluid in the test tube left at rest at 30° C. for 24 hours was diluted with a phosphate buffer solution (PBS) and smeared on a BHI agar medium. After culturing at 37° C. for 24 hours, the number of bacteria on the agar medium was measured by observation with a microscope. With respect to the dilution with PBS, the culture fluid was preliminarily properly diluted within a range of from 10^2 to 10^9 times to such a concentration that the number of bacteria can be counted with a microscope 24 hour later (the number of bacteria 24 hours later was calibrated in accordance with the proportion preliminarily diluted with PBS).
# [2] = tested on: Listeria monocytogenes JCM2873; experiment: Antibacterial test, colony formation on Mueller Hinton agar after culture with sample (Experimental Example 1); format: cell-based; details: 10 ppm at the time of test; 37° C. for 24 hours, then agar 37° C. for 2 days; negative control 3×10^8 cfu/ml
# Method: The components (Terpenoid-1 and Terpenoid-2) isolated from the water-insoluble rosemary extract were dissolved in DMSO (dimethylsulfoxide) at a concentration of 2,000 ppm to obtain samples for antibacterial activity test. The antibacterial test was carried out as follows using Listeria monocytogenes JCM2873. 8.95 ml of Mueller Hinton Broth (MHB) culture medium was put in a test tube and sterilized in an autoclave. The culture medium concentration was adjusted to achieve a specified concentration when 50 μl of the sample was added. Listeria monocytogenes JCM2873 was cultured by shake culture at 37° C. for 1 day in the MHB culture medium, and diluted to an appropriate bacteria concentration (3.1×10^4 cfu/ml) by the MHB culture medium. To the test tube in which 8.95 ml of the MHB culture medium prepared in the above (1) was put, 50 μl of the sample and 1 ml of the bacteria liquid prepared in the above (2) were added and stirred (isolated component concentration at the time of test: 10 ppm) and left at rest at 37° C. for 24 hours. As a negative control and a positive control, sterilized water and erythromycin (solution at a concentration of 2,000 ppm in ethanol) were added instead of the sample. From the test tube left at rest at 37° C. for 24 hours, a loopful of the culture fluid was collected and smeared on a Mueller Hinton agar medium. After culturing at 37° C. for 2 days, formation of colonies on the agar medium and its degree were judged.
# [3] = 50, 100, 200 ppm, same conditions as for Terpenoid-1 and Terpenoid-2
# [4] = at a concentration of 50 ppm or higher
Structure (SMILES),"antibacterial activity against Listeria monocytogenes (in words) [1, 3]",Number of bacteria (cfu/ml) ([1]; added substance 50 ppm),Inhibitory ratio (%) ([1]; added substance 50 ppm),Number of bacteria (cfu/ml) ([1]; added substance 100 ppm),Inhibitory ratio (%) ([1]; added substance 100 ppm),Number of bacteria (cfu/ml) ([1]; added substance 200 ppm),Inhibitory ratio (%) ([1]; added substance 200 ppm),formation of colonies on the agar medium [2],also measured
CC(C)c1cc2c(c(O)c1O)[C@@]13CCCC(C)(C)[C@@H]1[C@H](OC3=O)[C@@H]2O [Epirosmanol],low or no antibacterial activity,4.0 × 10^9 cfu/ml,0.0%,4.2 × 10^9 cfu/ml,0.0%,3.2 × 10^9 cfu/ml,0.0%,,
C=C(C)[C@@H]1CC[C@]2(C(=O)O)CC[C@]3(C)[C@H](CC[C@@H]4[C@@]5(C)CC[C@H](O)C(C)(C)[C@@H]5CC[C@]43C)[C@@H]12 [Betulinic acid],,4.0 × 10^9 cfu/ml,0.0%,4.5 × 10^9 cfu/ml,0.0%,3.0 × 10^9 cfu/ml,0.0%,,
"COc1c(C(C)C)cc2c(c1O)C1(C(=O)O)CCCC(C)(C)C1CC2 (stereo not drawn) [12-Methoxy-tarns-carnosic acid, 12-methoxy-trans-carnosic acid]",low or no antibacterial activity,3.1 × 10^9 cfu/ml,11.8%,4.1 × 10^9 cfu/ml,17.7%,4.3 × 10^9 cfu/ml,20.6%,,
CC(C)c1cc2c(c(O)c1O)[C@@]13CCCC(C)(C)[C@@H]1C[C@@H]2OC3=O [Carnosol],low or no antibacterial activity,4.3 × 10^9 cfu/ml,0.0%,4.7 × 10^9 cfu/ml,0.0%,3.9 × 10^9 cfu/ml,0.0%,,
"CC[C@H]1OC(=O)[C@H](C)[C@@H](O[C@H]2C[C@@](C)(OC)[C@@H](O)[C@H](C)O2)[C@H](C)[C@@H](O[C@@H]2O[C@H](C)C[C@H](N(C)C)[C@H]2O)[C@](C)(O)C[C@@H](C)C(=O)[C@H](C)[C@@H](O)[C@]1(C)O [Erythromycin, erythromycin]",,,,,,,,no formation of colonies,Turbidity of culture fluid ([1]; added substance 2.5 ppm): 0.011; Number of bacteria (cfu/ml) ([1]; added substance 2.5 ppm): 3.7 × 10^2 cfu/ml; Inhibitory ratio (%) ([1]; added substance 2.5 ppm): 97.8%; Turbidity of culture fluid ([1]; added substance 5 ppm): 0.022; Number of bacteria (cfu/ml) ([1]; added substance 5 ppm): 9.5 × 10^2 cfu/ml; Inhibitory ratio (%) ([1]; added substance 5 ppm): 95.6%; Turbidity of culture fluid ([1]; added substance 10 ppm): −0.008; Number of bacteria (cfu/ml) ([1]; added substance 10 ppm): 1.8 × 10^2 cfu/ml; Inhibitory ratio (%) ([1]; added substance 10 ppm): 98.4%; antibacterial property (in words) ([1]; concentration range of from 2.5 to 10 ppm): high antibacterial property
CC(C)c1cc2c(cc1O)[C@H]1CCCC(C)(C)[C@@H]1CC2 [Terpenoid-2],,4.4 × 10^9 cfu/ml,7.2%,2.5 × 10^9 cfu/ml,21.0%,1.3 × 10^9 cfu/ml,47.2%,no formation of colonies,"Turbidity of culture fluid ([1]; added substance 50 ppm): 0.472; Turbidity of culture fluid ([1]; added substance 100 ppm): 0.402; Turbidity of culture fluid ([1]; added substance 200 ppm): 0.268; antibacterial activity against Listeria monocytogenes (in words) [1, 4]: confirmed to have antibacterial activity"
"CCO[C@H]1c2cc(C(C)C)c(O)c(O)c2[C@@]23CCCC(C)(C)[C@@H]2[C@@H]1OC3=O [7α-Ethoxyrosmanol, 7α-ethoxyrosmanol]",low or no antibacterial activity,2.5 × 10^9 cfu/ml,4.0%,3.6 × 10^9 cfu/ml,0.5%,3.8 × 10^9 cfu/ml,2.6%,,
"CC(C)c1cc2c(cc1O)[C@@]1(C)CCCC(C)(C)[C@@H]1CC2 [Terpenoid-1, ferruginol]",,3.8 × 10^9 cfu/ml,4.6%,1.6 × 10^9 cfu/ml,43.0%,3.8 × 10^6 cfu/ml,100%,no formation of colonies,"Turbidity of culture fluid ([1]; added substance 50 ppm): 0.485; Turbidity of culture fluid ([1]; added substance 100 ppm): 0.290; Turbidity of culture fluid ([1]; added substance 200 ppm): −0.003; antibacterial activity against Listeria monocytogenes (in words) [1, 4]: confirmed to have antibacterial activity"
CC(C)c1cc2c(c(O)c1O)[C@@]13CCCC(C)(C)[C@@H]1[C@H](OC3=O)[C@H]2O [Rosmanol],low or no antibacterial activity,3.9 × 10^9 cfu/ml,10.2%,3.7 × 10^9 cfu/ml,5.1%,3.9 × 10^9 cfu/ml,16.0%,,
